Data set [1] has as its system SK-UT-1B leiomyosarcoma cell line. In words: MBZ cell viability IC50 (CellTiter Glo). The format is cell-based. The settings on record: Homo sapiens, Skut1B, 72 hours. On the procedure:
(§1) The effect of mebendazole administration on cell lines derived from exemplary cancers was tested. One approach to determining the effectiveness of mebendazole in the treatment of cancer comprises in vitro testing. In this approach, cancer cell lines representative of the cancers of the disclosure are cultured in vitro according to standard techniques (see, for example, Human Cell Culture Protocols, Third Edition, […] R. D. Hughes, Editors, Humana Press, 2012), and increasing concentrations of mebendazole are administered to determine the IC50 value. As used herein, the term “IC50 value” refers to the concentration of a compound (for example mebendazole) wherein the response to that compound (such as inhibited cellular viability) is reduced by half. The IC50 is thus a measure of the effectiveness of a compound in inhibiting a biological process. […] Based on this biology, several rare cancer tumor cell lines including neuroblastoma, rhabdomyosarcoma and Ewing sarcoma were analyzed for sensitivity to MBZ treatment in vitro. […] In all cases, including those described below, the viable cells were determined using the CellTiter Glo® kit and an IC50 curve was generated using the PRISM software.

Data set [2] relates to SW-13 adrenal cortical carcinoma cell line. Kind of data set: MBZ cell viability IC50 (CellTiter Glo). The data set is classed as cell-based. The settings on record: Homo sapiens, SW13, 72 hours. On the procedure:
as §1
A general note: ATP-based viability assays read luminescence as a measure of living cells.

The test system of data set [3] is CHLA-9 Ewing's sarcoma cell line. Kind of data set: MBZ cell viability IC50 (CellTiter Glo). The data set is classed as cell-based. The settings on record: 72 hours. On the procedure: as §1
Data set [4] concerns NCI-H295R adrenal cortical carcinoma cell line. In words: MBZ cell viability IC50 (CellTiter Glo). The format is cell-based. To be noted: Homo sapiens, 72 hours. The method, then:
as §1

The subject of data set [5] is Rh-41 rhabdomyosarcoma cell line. Kind of data set: MBZ cell viability IC50 (CellTiter Glo). The data set is classed as cell-based. The settings on record: Homo sapiens, Rh41, 72 hours. The method, then: as §1
For data set [6], the system named is SNU16 gastric carcinoma cells. Kind of data set: Synergy of MBZ or HA-PLGA-MBZ with chemotherapeutic agents (Chou-Talalay CI, Cell Titer Glo). The settings on record: SNU16 + 5-FU. The format is cell-based.
Procedure: (§6) For in vitro experiments, cells were plated in triplicate and treated with a range of concentrations of MBZ and relevant chemotherapeutic agents in a complete Latin square.
(§7) Cells were plated in triplicate and treated with a range of 5 concentrations of MBZ in combination with 5 concentrations of chemotherapeutic agents in a complete Latin square. Following a 72 hour incubation, cell viability was determined using Cell Titer Glo.
(§8) In table 22 below, cells were plated in triplicate and treated with a range of 5 concentrations of MBZ or HA-PLGA-MBZ nanoparticles containing a molar equivalent of MBZ, and 5 concentrations of relevant chemotherapeutic agents in a complete Latin square. Combination indexes (CI) were determined based on the method described by Chou-Talalay with a CI value less than 0.9 indicating synergy. […] Numbers in parentheses represent the range of synergistic CI values for each cell line and drug combination.
Data set [7] relates to PC12 pheochromocytoma/paraganglioma cell line. The data set is described as above. The format is cell-based. To be noted: PC12 + Vincristine.
Procedure: as §6, §7, §8
Data set [8] relates to multiple rare cancer tumor cell lines. In words: MBZ alone, cell viability IC50 in rare cancer tumor cell lines (Example 3). The settings on record: read-out: IC50s (range over cell lines). The format is cell-based. The method, then: The FDA-approved anti-helminthic drug mebendazole (MBZ) has been reported to affect several biological pathways involved in tumor growth and metastasis. Based on this activity, multiple rare cancer tumor cell lines including, but not limited to, neuroblastoma, carcinoid tumors, esophageal adenocarcinoma, gastrointestinal stromal tumors, leiomyosarcoma, pheochromocytoma, and mesothelioma were analyzed for their susceptibility to MBZ treatment alone or in combination with standard chemotherapeutic agents in vitro.

Data set [9] relates to IMR-32 neuroblastoma cell line. In words: MBZ cell viability IC50 (CellTiter Glo). The format is cell-based. The settings on record: Homo sapiens, 72 hours. The method, then: (§2) The effect of mebendazole administration on cell lines derived from exemplary cancers was tested. One approach to determining the effectiveness of mebendazole in the treatment of cancer comprises in vitro testing. In this approach, cancer cell lines representative of the cancers of the disclosure are cultured in vitro according to standard techniques (see, for example, Human Cell Culture Protocols, Third Edition, […] R. D. Hughes, Editors, Humana Press, 2012), and increasing concentrations of mebendazole are administered to determine the IC50 value. As used herein, the term “IC50 value” refers to the concentration of a compound (for example mebendazole) wherein the response to that compound (such as inhibited cellular viability) is reduced by half. The IC50 is thus a measure of the effectiveness of a compound in inhibiting a biological process. […] Based on this biology, several rare cancer tumor cell lines including neuroblastoma, rhabdomyosarcoma and Ewing sarcoma were analyzed for sensitivity to MBZ treatment in vitro. […] In all cases, including those described below, the viable cells were determined using the CellTiter Glo® kit and an IC50 curve was generated using the PRISM software. […] The neuroblastoma cell lines IMR-32, CHP-212, and SK-N-AS were treated with ten serial dilutions of mebendazole for 72 hours.

Data set [10] has as its system SK-N-AS neuroblastoma cell line. In words: MBZ cell viability IC50 (CellTiter Glo). The data set is classed as cell-based. The settings on record: Homo sapiens, 72 hours. The method, then: as §2
Data set [11] relates to CHP-212 neuroblastoma cell line. Kind of data set: MBZ cell viability IC50 (CellTiter Glo). The data set is classed as cell-based. The settings on record: Homo sapiens, 72 hours. The method, then: as §2
A further data set relates to ACCX5M1 PDX tumors. In words: ACC patient-derived xenograft (PDX) model, daily oral MBZ. The data set is classed as in vivo, mice. The settings on record: 50 or 200 mg/kg daily oral. The method, then:
(§3) The effectiveness of mebendazole can be assayed in vivo using a patient derived xenograft mouse model. In patient derived xenograft mice, cancerous cells isolated from a cancer patient are implanted into an immunodeficient mouse, and allowed to form tumors. The mice are then administered mebendazole, and the effect on tumor size and mouse viability is assayed. As xenograft cancers can be implanted from a variety of patient sources, the effectiveness of mebendazole treatment on multiple cancers can be assayed in this manner. Human cancer cell lines such as those tested in vitro can similarly be used in mouse xenograft tumor models.
(§4) Despite a deepening understanding of the molecular events that lead to sustained tumor growth, there are currently no approved therapies for ACC. Identification of therapies for ACC has been hampered by the lack of ACC cell lines and transgenic mouse models. To circumvent these issues, the activity of MBZ was tested in several ACC patient-derived xenograft (PDX) models. Athymic nude mice were implanted subcutaneously with PDX tumors and treatment was initiated when tumors reached a size of 125-300 mm^3. Mice were randomized into three treatment groups to receive daily treatment with vehicle or MBZ at either 50 or 200 mg/kg for the duration of the study. Tumor size was measured twice weekly.

In a further data set the test system is ACCX9 PDX tumors. Described as above. The data set is classed as in vivo, mice. To be noted: for median survival: vehicle 29.5 days. The method, then:
as §3, §4

For the next data set, the system named is ACCX6 PDX tumors. The data set is described as above. The format is in vivo, mice. The settings on record: for median survival: vehicle 42 days. On the procedure: as §3, §4
The subject of data set [12] is gastric cancer primary cells isolated from patient-derived xenograft model GA0033. In words: Ex vivo 3D assay, cell viability (Cell Titer Glo). The format is cell-based. To be noted: 168 h, 3D culture, seven days. The method, then: (§5) To evaluate the efficacy of MBZ in an additional model system, an ex vivo 3D assay using gastric cancer primary cells isolated from two patient-derived xenograft models (A. GA0033 and B. GA3155) was performed. Cells were seeded in 3D cultures and treated for seven days with MBZ at nine different doses in triplicate. Cell viability was determined using Cell Titer Glo. An IC50 was established using the PRISM software.

Data set [13] relates to gastric cancer primary cells isolated from patient-derived xenograft model GA3155. Kind of data set: Ex vivo 3D assay, cell viability (Cell Titer Glo). The data set is classed as cell-based. The settings on record: 168 h, 3D culture, seven days. On the procedure: as §5
A short description of data set [14]: Tolerability of daily oral MBZ dosing in ACC PDX mice. The format is in vivo. The settings on record: athymic nude mice with ACC PDX tumors; 50 or 200 mg/kg daily. On the procedure:
as §4

Setting [15] is: both the 50 and 200 mg/kg dose levels.

Molecules are shown by their SMILES.

For `COC(=O)Nc1nc2ccc(C(=O)c3ccccc3)cc2[nH]1` [MBZ, methyl N-(6-benzoyl-1H-benzimidazol-2-yl)carbamate], the IC50 was 0.1 µM in data set [1]; 0.26 µM in data set [2]; 1.02 µM in data set [3]; 0.1 µM in data set [4]; 0.49 µM in data set [5]; 0.09 to 2.2 µM in data set [8]. Besides, the IC50 in data set [9] amounted to 0.05 µM; in data set [10] it was 0.68 µM; in [11], 0.13 µM; in data set [12], 0.74 µM; in data set [13], 0.76 µM. The “range of synergistic CI values” is on record as 0.223-0.837 in [6] and “Yes- (0.274-0.870)” in data set [7]. Further, in the data set on ACCX5M1 PDX tumors, the tumor growth entry is recorded as “did not inhibit tumor growth”. The median survival with ACCX9 PDX tumors (50 mg/kg daily oral, not statistically significant) is given as 33 days; in the data set on ACCX9 PDX tumors (200 mg/kg daily oral), 38 days; in the data set with ACCX6 PDX tumors (50 mg/kg daily oral), 95.5 days; in the data set on ACCX6 PDX tumors (200 mg/kg daily oral), 64.5 days. Moreover, the tumor volume result in the data set on ACCX9 PDX tumors (200 mg/kg) and with ACCX6 PDX tumors (setting [15]) was “decrease in tumor volume” each time. Moreover, the anti-tumor activity entry in the data set on ACCX9 PDX tumors (highest dose of 200 mg/kg) was “statistically significant anti-tumor activity”. For the same compound, the “tumor growth compared to vehicle” value in the data set with ACCX6 PDX tumors (setting [15]) is “Inhibition of tumor growth”. Besides, the “tolerability of daily oral dosing” value in data set [14] is on record as “well tolerated with no overt toxicities”.

(Values after patent US20190175560A1, “MEBENDAZOLE CANCER THERAPIES AND METHODS OF USE” (Shepherd Therapeutics, Inc., priority 2017, published 2019).)
